# Measurements from patent publication US20250034117A1, “Deuterated 1,3 Dihydro -2H-indole-2-one derivatives” (HMNC Holding GmbH, priority 2023, published 2025).
# Like-named read-outs stand apart in the source and are kept apart here.
# Legend:
# [1] = 10 mg/kg p.o.; cited from earlier work
# [2] = human, microsomes, 0.1 μM, pH 7.4
# Method: (§1) Liver microsomal stability assays are conducted with human liver microsomes at a final liver microsomal protein concentration of 0.1007 mg per ml. Test compounds are prepared as solutions in 0.01% DMSO, 0.25% acetonitril and 0.25% methanol. The test compound is added to the reaction mixture at a final concentration of 0.1 μM and pre-incubated with pooled liver microsomes in phosphate buffer (pH 7.4) for 10 min on plate shaker in a 37° C. incubator. The reaction is initiated by adding a NADPH-generating system and incubated for 0, 15, 30, 45, and 60 min. The reaction is stopped by transferring the incubation mixture to Stop Buffer solvent (acetonitrile/methanol). Samples are then mixed and centrifuged. The supernatant samples are loaded onto the LC/MS/MS for analysis. Samples are analyzed by LC/MS/MS using multiple reaction monitoring (MRM). The UPLC system consists of a binary LC pump with autosampler, a C-18 column, and a gradient.
# (§2) Four reference compounds are tested in each assay (Propranolol, imipramine, verapamil and terfenadine).
# (§3) For data analysis, peak areas corresponding to the test compound are recorded. The compound remaining is calculated by comparing the peak area at each time point to time zero. The half-life is calculated from the slope of the initial linear range of the logarithmic curve of compound remaining (%) vs. time, assuming first order kinetics.
# in vitro = settings: human, microsomes, pH 7.4
# Method: as §1, §2, §3
# V1a = V1a (Homo sapiens (Human), UniProt P37288); assay: Activity assay in the agonistic mode, V1a; type: biochemical
# OT receptors = OT receptors (Homo sapiens (Human), UniProt P30559); assay: Activity assay in the agonistic mode, OT receptors; type: biochemical
# [3] = In vitro human liver microsomal (HLM) stability assay; settings: for Half-life: human liver microsomes, first order kinetics; for % Compound Remaining (Mean): 0.1 μM compound, human liver microsomes 0.1007 mg/ml
# Method: as §1, §2, §3
# V2 = V2 (Homo sapiens (Human), UniProt P30518); assay: Activity assay in the agonistic mode, V2; type: biochemical
# Chain of V2 (P30518 whole entry): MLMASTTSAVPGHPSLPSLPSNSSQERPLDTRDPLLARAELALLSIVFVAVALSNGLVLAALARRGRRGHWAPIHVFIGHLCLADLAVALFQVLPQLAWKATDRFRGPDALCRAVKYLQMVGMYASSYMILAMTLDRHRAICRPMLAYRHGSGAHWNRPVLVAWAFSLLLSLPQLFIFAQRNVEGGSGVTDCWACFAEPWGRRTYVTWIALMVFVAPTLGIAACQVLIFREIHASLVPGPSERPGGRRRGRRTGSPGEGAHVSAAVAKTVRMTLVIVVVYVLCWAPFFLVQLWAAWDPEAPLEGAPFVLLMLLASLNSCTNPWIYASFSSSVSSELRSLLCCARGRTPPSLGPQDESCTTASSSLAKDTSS
# Chain of OT receptors (P30559 whole entry): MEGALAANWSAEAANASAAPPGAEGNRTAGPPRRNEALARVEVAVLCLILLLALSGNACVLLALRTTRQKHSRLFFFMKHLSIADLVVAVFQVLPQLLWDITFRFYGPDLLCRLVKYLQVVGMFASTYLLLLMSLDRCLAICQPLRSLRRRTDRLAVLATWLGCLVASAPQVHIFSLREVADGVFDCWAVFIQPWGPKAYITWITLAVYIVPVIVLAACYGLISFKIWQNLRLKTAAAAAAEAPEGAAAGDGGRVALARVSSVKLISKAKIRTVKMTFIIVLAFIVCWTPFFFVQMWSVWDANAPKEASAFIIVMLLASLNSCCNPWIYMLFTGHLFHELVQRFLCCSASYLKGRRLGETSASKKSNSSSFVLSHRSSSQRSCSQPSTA
# Chain of V1a (P37288 whole entry): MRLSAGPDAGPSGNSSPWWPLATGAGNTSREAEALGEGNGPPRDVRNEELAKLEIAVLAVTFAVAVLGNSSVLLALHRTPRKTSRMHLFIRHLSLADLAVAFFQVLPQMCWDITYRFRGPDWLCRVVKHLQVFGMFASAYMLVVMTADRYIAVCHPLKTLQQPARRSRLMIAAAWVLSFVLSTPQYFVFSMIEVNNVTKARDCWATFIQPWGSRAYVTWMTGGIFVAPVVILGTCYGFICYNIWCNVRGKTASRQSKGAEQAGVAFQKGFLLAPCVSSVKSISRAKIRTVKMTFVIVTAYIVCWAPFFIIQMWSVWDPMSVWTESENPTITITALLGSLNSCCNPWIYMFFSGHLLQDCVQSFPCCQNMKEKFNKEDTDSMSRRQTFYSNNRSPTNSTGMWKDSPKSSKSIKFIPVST
% Compound Remaining (Mean) ([2]; 0 h),% Compound Remaining (Mean) ([2]; 0.25 h),% Compound Remaining (Mean) ([2]; 0.5 h),% Compound Remaining (Mean) ([2]; 0.75 h),% Compound Remaining (Mean) ([2]; 1 h),half-life at 0.1 μM (in vitro),activity in the agonistic mode in comparison to undeuterated nelivaptan (V1a),activity in the agonistic mode in comparison to undeuterated nelivaptan (OT receptors),activity in the agonistic mode in comparison to undeuterated nelivaptan (V2),Compound,duration of action [1],Half-life [3],% Compound Remaining (Mean) ([3]; incubation 0 min),% Compound Remaining (Mean) ([3]; incubation 15 min),% Compound Remaining (Mean) ([3]; incubation 30 min),% Compound Remaining (Mean) ([3]; incubation 45 min),% Compound Remaining (Mean) ([3]; incubation 60 min)
100.0%,3.8%,0.4%,0.1%,0.03%,3.2 min,,,,"COc1ccc(S(=O)(=O)N2C(=O)[C@@](c3ccccc3OC)(N3C[C@H](O)C[C@H]3C(=O)N(C)C)c3cc(Cl)ccc32)c(OC)c1 [Nelivaptan, (2S,4R)-1-[(3R)-5-chloro-1-(2,4-dimethoxyphenyl)sulfonyl-3-(2-methoxyphenyl)-2-oxoindol-3-yl]-4-hydroxy-N,N-dimethylpyrrolidine-2-carboxamide, reference compound]",> 4 h,,,,,,
,,,,,,no significant difference,no significant difference,no significant difference,"[2H]C([2H])([2H])Oc1ccc(S(=O)(=O)N2C(=O)[C@@](c3ccccc3OC([2H])([2H])[2H])(N3C[C@H](O)C[C@H]3C(=O)N(C([2H])([2H])[2H])C([2H])([2H])[2H])c3cc(Cl)ccc32)c(OC([2H])([2H])[2H])c1 [Example 3, (2S,4R)1-[(3R)-5-chloro-1-[(2,4-dimeth-d6-oxyphenyl)sulfonyl]-2,3-dihydro-3-(2-methoxy-d3-phenyl)-2-oxo-1H-indol-3-yl]-4-hydroxy-N,N-dimethyl-d6-2-pyrrolidinecarboxamide]",,6.2 min,100%,5.40%,0.39%,0.15%,0.13%
100.0%,7.7%,0.4%,0.1%,0.02%,4.1 min,no significant difference,no significant difference,no significant difference,"[2H]C([2H])([2H])Oc1ccccc1[C@@]1(N2C[C@H](O)C[C@H]2C(=O)N(C)C)C(=O)N(S(=O)(=O)c2ccc(OC)cc2OC)c2ccc(Cl)cc21 [Example 2, (2S,4R)1-[(3R)-5-chloro-1-[(2,4-dimethoxyphenyl)sulfonyl]-2,3-dihydro-3-(2-methoxy-d3-phenyl)-2-oxo-1H-indol-3-yl]-4-hydroxy-N,N-dimethyl-2-pyrrolidinecarboxamide]",,,,,,,

Compound,% Compound Remaining (Mean) ([2]; 0 h),% Compound Remaining (Mean) ([2]; 0.25 h),% Compound Remaining (Mean) ([2]; 0.5 h),% Compound Remaining (Mean) ([2]; 0.75 h),% Compound Remaining (Mean) ([2]; 1 h),half-life at 0.1 μM (in vitro),activity in the agonistic mode in comparison to undeuterated nelivaptan (V1a),activity in the agonistic mode in comparison to undeuterated nelivaptan (OT receptors),activity in the agonistic mode in comparison to undeuterated nelivaptan (V2),duration of action [1],Half-life [3],% Compound Remaining (Mean) ([3]; incubation 0 min),% Compound Remaining (Mean) ([3]; incubation 15 min),% Compound Remaining (Mean) ([3]; incubation 30 min),% Compound Remaining (Mean) ([3]; incubation 45 min),% Compound Remaining (Mean) ([3]; incubation 60 min)
"[2H]C([2H])([2H])N(C(=O)[C@@H]1C[C@@H](O)CN1[C@]1(c2ccccc2OC)C(=O)N(S(=O)(=O)c2ccc(OC)cc2OC)c2ccc(Cl)cc21)C([2H])([2H])[2H] [Example 1, (2S,4R)1-[(3R)-5-chloro-1-[(2,4-dimethoxyphenyl)sulfonyl]-2,3-dihydro-3-(2-methoxyphenyl)-2-oxo-1H-indol-3-yl]-4-hydroxy-N,N-dimethyl-d6-2-pyrrolidinecarboxamide]",,,,,,,no significant difference,no significant difference,no significant difference,,4.7 min,100.0%,14.3%,1.2%,0.1%,0.03%
